Assay results taken from the supplement of paper PMC10307832.

Columns and labels:
Test in all cases: relative viability (nuclei count vs DMSO), 5 days (fraction); higher = more cells survive
[1] = compound: CC1CC(=O)N(C2=CN=C(N=C2N1C3CCCC3)NC4=C(C=C(C=C4)C(=O)NC5CCN(CC5)C)OC)C [NPK76-II-72-1] + Cc1nc(Nc2ncc(C(=O)Nc3c(C)cccc3Cl)s2)cc(N2CCN(CCO)CC2)n1 [Dasatinib] (partner 0.075 µM)
How it was run: (§1)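 Relative viability equals treated-well nuclei counts divided by vehicle-well nuclei counts. Counts came from 4× images of lung cancer cell lines grown in 1536-well plates for 5 days after pin-tool dosing on the day after seeding. Dosing used one drug alone or a fixed anchor-drug dose plus five library-drug doses (not always all listed) in √10 steps, and values are medians of duplicate plates.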

[2] = compound: CC1CC(=O)N(C2=CN=C(N=C2N1C3CCCC3)NC4=C(C=C(C=C4)C(=O)NC5CCN(CC5)C)OC)C [NPK76-II-72-1] + C[C@]1(O)C[C@@H](c2nc(-c3ccc4ccc(-c5ccccc5)nc4c3)c3c(N)nccn32)C1 [Linsitinib] (partner 1 µM)
How it was run: as §1

[3] = compound: CC1CC(=O)N(C2=CN=C(N=C2N1C3CCCC3)NC4=C(C=C(C=C4)C(=O)NC5CCN(CC5)C)OC)C [NPK76-II-72-1] + Nc1nc2[nH]cc(CCc3ccc(C(=O)N[C@@H](CCC(=O)O)C(=O)O)cc3)c2c(=O)[nH]1 [Pemetrexed] (partner 0.2 µM)
How it was run: as §1

[4] = compound: CC[C@@H]1C(=O)N(C)c2cnc(Nc3ccc(C(=O)NC4CCN(C)CC4)cc3OC)nc2N1C1CCCC1 [BI-2536] + CS(=O)(=O)CCNCc1ccc(-c2ccc3ncnc(Nc4ccc(OCc5cccc(F)c5)c(Cl)c4)c3c2)o1 [Lapatinib] (partner 2 µM)
How it was run: as §1

Cell Line	relative viability ([1]; first compound 0.01 µM)	relative viability ([1]; first compound 0.03162 µM)	relative viability ([1]; first compound 0.1 µM)	relative viability ([1]; first compound 0.3162 µM)	relative viability ([1]; first compound 1 µM)	relative viability ([2]; first compound 0.01 µM)	relative viability ([2]; first compound 0.03162 µM)	relative viability ([2]; first compound 0.1 µM)	relative viability ([2]; first compound 0.3162 µM)	relative viability ([2]; first compound 1 µM)	relative viability ([3]; first compound 0.01 µM)	relative viability ([3]; first compound 0.03162 µM)	relative viability ([3]; first compound 0.1 µM)	relative viability ([3]; first compound 0.3162 µM)	relative viability ([3]; first compound 1 µM)	relative viability ([4]; first compound 0.01 µM)	relative viability ([4]; first compound 0.03162 µM)	relative viability ([4]; first compound 0.1 µM)	relative viability ([4]; first compound 0.3162 µM)	relative viability ([4]; first compound 1 µM)
NCI-H2347	0.309	0.297	0.348	0.348	0.327	0.925	1.03	1	0.896	0.983	0.502	0.42	0.417	0.403	0.354	0.786	0.986	0.769	0.413	0.621
NCI-H2009	0.297	0.342	0.301	0.287	0.317	1.18	1.18	1.08	1.2	1.15	0.971	1.18	1	1.02	1.04	0.869	0.64	0.101	0.158	0.0981
HCC-15	0.598	0.637	0.599	0.642	0.649	0.85	0.911	0.952	0.826	0.953	0.214	0.23	0.219	0.225	0.235	0.857	0.81	0.496	0.248	0.123
COR-L23	0.439	0.533	0.554	0.433	0.526	0.869	0.918	0.898	0.908	1.04	0.207	0.19	0.195	0.193	0.211	1.05	0.776	0.357	0.0913	0.102
HCC-78	0.384	0.363	0.449	0.346	0.402	–	0.529	0.487	–	0.516	0.978	0.893	0.75	0.869	0.895	0.403	0.885	0.814	0.39	0.18
NCI-H2087	0.873	0.873	0.813	0.941	0.71	1.02	0.996	0.909	1	1.11	0.66	0.653	0.588	0.661	0.63	1.38	0.992	0.594	0.138	0.146
BEN	0.33	0.232	0.314	0.345	0.324	0.946	1.01	0.87	0.881	0.879	0.794	0.683	0.739	0.755	0.934	0.631	0.578	0.479	0.228	0.235
EKVX	0.58	0.528	0.519	–	0.652	0.935	1.07	0.985	0.764	1.18	0.358	0.447	0.435	–	0.387	0.199	0.205	0.205	0.142	0.117
